Consider 14 molecules from US9926297B2, “Bicyclic AZA compounds as muscarinic M1 receptor and/or M4 receptor agonists” (Heptares Therapeutics Limited, priority 2014, dated 2018).

For orientation: Emax means the maximal effect, on the per cent scale that the assay sets.

For test [1], the target named is T1, human muscarinic M2 receptor (Homo sapiens, UniProt P08172).
T1 sequence (P08172 1-466): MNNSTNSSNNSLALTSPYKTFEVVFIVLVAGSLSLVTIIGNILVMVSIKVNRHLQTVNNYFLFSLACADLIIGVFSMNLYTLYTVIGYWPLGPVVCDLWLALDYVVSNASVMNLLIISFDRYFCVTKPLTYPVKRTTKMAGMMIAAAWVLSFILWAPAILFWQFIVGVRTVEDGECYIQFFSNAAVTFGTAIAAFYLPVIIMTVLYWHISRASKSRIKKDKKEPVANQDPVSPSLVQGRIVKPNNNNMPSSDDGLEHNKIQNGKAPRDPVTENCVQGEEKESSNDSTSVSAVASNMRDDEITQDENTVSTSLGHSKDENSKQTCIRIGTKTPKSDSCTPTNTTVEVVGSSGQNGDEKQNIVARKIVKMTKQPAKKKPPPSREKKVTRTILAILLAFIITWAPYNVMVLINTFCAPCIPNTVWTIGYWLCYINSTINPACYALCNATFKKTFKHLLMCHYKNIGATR
Nature of the test: Alphascreen Surefire phospho-ERK1/2 functional assay, M2. The settings on record: for Emax: CHO, read-out: % Emax cf. ACh, M2, CHO cells stably expressing human M2. (Alpha assays give light when donor and acceptor beads are brought close together.)
Description: (§1) CHO cells stably expressing the human muscarinic M1, M2, M3 or M4 receptor were plated (25K/well) onto 96-well tissue culture plates in MEM-alpha+10% dialysed FBS. Once adhered, cells were serum-starved overnight. Agonist stimulation was performed by the addition of 5 μL agonist to the cells for 5 min (37° C.). Media was removed and 50 μL of lysis buffer added. After 15 min, a 4 μL sample was transferred to 384-well plate and 7 μL of detection mixture added. Plates were incubated for 2 h with gentle agitation in the dark and then read on a PHERAstar plate reader.
(§2) pEC50 and Emax figures were calculated from the resulting data for each receptor subtype.

In test [2] the target is T2, human muscarinic M4 receptor (Homo sapiens, UniProt P08173).
T2 construct: expressed in transfected cells
T2 sequence (P08173 1-479): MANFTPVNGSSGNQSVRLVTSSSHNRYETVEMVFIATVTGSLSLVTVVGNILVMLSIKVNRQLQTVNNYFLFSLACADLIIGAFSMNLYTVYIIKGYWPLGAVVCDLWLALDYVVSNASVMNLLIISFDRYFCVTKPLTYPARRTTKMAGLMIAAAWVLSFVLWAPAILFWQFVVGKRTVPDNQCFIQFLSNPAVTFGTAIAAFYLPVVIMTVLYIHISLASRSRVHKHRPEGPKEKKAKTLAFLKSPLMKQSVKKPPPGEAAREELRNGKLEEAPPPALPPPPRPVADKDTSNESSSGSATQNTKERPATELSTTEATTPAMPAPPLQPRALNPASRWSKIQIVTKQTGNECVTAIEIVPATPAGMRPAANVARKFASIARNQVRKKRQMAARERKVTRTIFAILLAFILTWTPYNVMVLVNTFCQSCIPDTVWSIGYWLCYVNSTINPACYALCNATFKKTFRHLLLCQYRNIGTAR
Nature of the test: Alphascreen Surefire phospho-ERK1/2 functional assay, M4. The note with it: for EC50 / % Emax cf. ACh, M4: CHO cells stably expressing human M4; for EC50: phospho-ERK1/2, * = variable results, read-out: pEC50 M4 (converted); for Emax: CHO, read-out: % Emax cf. ACh, M4, CHO cells stably expressing human M4; for Emax / % Emax cf. ACh, M4: relative to ACh. Format: cell-based.

Test [3] addresses human muscarinic M3 receptor (Homo sapiens, UniProt P20309). Nature of the test: Alphascreen Surefire phospho-ERK1/2 functional assay, M3. The settings on record: for Emax: CHO, read-out: % Emax cf. ACh, M3, CHO cells stably expressing human M3; for EC50: pEC50 M3, CHO cells stably expressing human M3.
Description: as §1, §2
Test [4] has as its target T3, human muscarinic M1 receptor (Homo sapiens, UniProt P11229).
T3 sequence (P11229 1-460): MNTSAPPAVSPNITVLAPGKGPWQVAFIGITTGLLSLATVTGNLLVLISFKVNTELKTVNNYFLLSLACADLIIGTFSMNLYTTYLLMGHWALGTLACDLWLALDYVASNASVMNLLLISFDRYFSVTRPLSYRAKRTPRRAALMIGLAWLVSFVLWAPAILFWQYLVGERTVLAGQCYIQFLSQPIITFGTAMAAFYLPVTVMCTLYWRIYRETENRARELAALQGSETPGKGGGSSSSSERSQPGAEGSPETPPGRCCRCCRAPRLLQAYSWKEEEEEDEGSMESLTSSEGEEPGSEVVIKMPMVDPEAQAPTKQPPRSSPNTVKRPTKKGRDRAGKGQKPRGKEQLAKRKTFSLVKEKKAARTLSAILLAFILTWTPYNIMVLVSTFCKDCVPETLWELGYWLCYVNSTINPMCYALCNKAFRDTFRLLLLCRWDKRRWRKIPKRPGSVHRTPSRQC
In words: Alphascreen Surefire phospho-ERK1/2 functional assay, M1. Format: cell-based. The settings on record: for EC50 / % Emax cf. ACh, M1: CHO cells stably expressing human M1; for EC50: phospho-ERK1/2, * = variable results, read-out: pEC50 M1 (converted); for Emax: CHO, read-out: % Emax cf. ACh, M1, CHO cells stably expressing human M1; for Emax / % Emax cf. ACh, M1: relative to ACh.

The mark [5] stands for this setting: phospho-ERK1/2, * = variable results.

Sequence of human muscarinic M3 receptor (P20309 whole entry): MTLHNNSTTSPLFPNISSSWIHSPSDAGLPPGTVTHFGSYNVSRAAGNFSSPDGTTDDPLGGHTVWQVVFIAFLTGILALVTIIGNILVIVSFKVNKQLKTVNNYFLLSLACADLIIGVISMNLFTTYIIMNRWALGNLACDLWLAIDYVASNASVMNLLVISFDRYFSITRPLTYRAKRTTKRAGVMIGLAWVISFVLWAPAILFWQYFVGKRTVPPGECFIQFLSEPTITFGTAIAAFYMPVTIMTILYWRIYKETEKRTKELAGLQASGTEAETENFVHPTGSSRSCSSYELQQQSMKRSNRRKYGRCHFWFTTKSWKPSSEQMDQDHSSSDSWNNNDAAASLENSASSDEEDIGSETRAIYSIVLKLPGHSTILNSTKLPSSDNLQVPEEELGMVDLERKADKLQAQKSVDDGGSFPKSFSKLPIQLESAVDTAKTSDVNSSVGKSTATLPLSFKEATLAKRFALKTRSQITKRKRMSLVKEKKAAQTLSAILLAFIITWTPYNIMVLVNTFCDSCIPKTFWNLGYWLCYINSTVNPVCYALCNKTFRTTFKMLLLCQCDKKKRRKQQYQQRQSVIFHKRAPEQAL

For `CCOC(=O)N1CCC2(CC(N3CCC(c4nccn4CC#N)CC3)C2)C1` (single isomer, unassigned) [1-52 Isomer 2, ethyl 2-{4-[1-(cyanomethyl)-1H-imidazol-2-yl]piperidin-1-yl}-6-azaspiro[3.4]octane-6-carboxylate], the EC50 was greater than 20000 nM in test [1], 15.8 nM in test [2], greater than 20000 nM in test [3] (setting [5]) and 158 nM in test [4]. The Emax stood at 15% in test [1] (relative to ACh), 106% in test [2], 20% in test [3] (relative to ACh) and 102% in test [4].

Regarding `CCOC(=O)N1CCC2(CC(N3CCC([C@@H]4CCCN4C(=O)C4CC4)CC3)C2)C1` (single isomer, unassigned) [2-8 Isomer 2], the EC50 in test [1] is greater than 20000 nM; in test [2] it was 15.8 nM; in test [3] (setting [5]) it was greater than 20000 nM; in test [4], 631 nM. Besides, the Emax came to 3% in test [1] (relative to ACh), 86% in test [2], 4% in test [3] (relative to ACh) and 36% in test [4].

As to `CCOC(=O)N1CCC2(CC(N3CCC(N4CCC[C@@H]4C(F)(F)F)CC3)C2)C1` (single isomer, unassigned) [2-104 Isomer 2], the EC50 in test [1] is greater than 20000 nM; in test [2], 15.8 nM; in test [3] (setting [5]), greater than 20000 nM; in test [4] it was 79.4 nM. Also, the Emax in test [1] (relative to ACh) is 8%; in test [2] it was 111%; in test [3] (relative to ACh) it was 8%; in test [4], 102%.

`CCOC(=O)N1CCC2(CC(N3CCC([C@@H]4CCCN4C(=O)NOC)CC3)C2)C1` (single isomer, unassigned) [2-33 Isomer 2]: the “pEC50 M2” value in test [1] (CHO cells stably expressing human M2, phospho-ERK1/2, * = variable results) is on record as less than 4.7. In addition, the “% Emax cf. ACh, M2” value in test [1] (CHO cells stably expressing human M2, relative to ACh) was determined as 5%. In test [2], the EC50 was 20 nM and the “% Emax cf. ACh, M4” value was 65%. Further, the “pEC50 M3” value in test [3] (CHO cells stably expressing human M3, phospho-ERK1/2, * = variable results) is reported as less than 4.7. In addition, the “% Emax cf. ACh, M3” value in test [3] (CHO cells stably expressing human M3, relative to ACh) stood at 5%. In test [4], the EC50 was greater than 20000 nM and the “% Emax cf. ACh, M1” value was found to be 4%.

`CCOC(=O)N1CCC2(CC(N3CCC(C4CC(C)CNC4=O)CC3)C2)C1` (single isomer, unassigned) [4-4 Isomer 2, ethyl 2-(5-methyl-2-oxo-3,4′-bipiperidin-1′-yl)-6-azaspiro[3.4]octane-6-carboxylate]: the EC50 in test [1] was greater than 20000 nM; in test [2], 5.01 nM; in test [3] (setting [5]), greater than 20000 nM; in test [4], 31.6 nM. Moreover, the Emax in test [1] (relative to ACh) was found to be 19%; in test [2], 73%; in test [3] (relative to ACh), 21%; in test [4], 97%.

For the molecule `COc1ncccc1C1CCN(C2CC3(CCN(C(=O)OCCF)C3)C2)CC1` (single isomer, unassigned) [3-5 Isomer 2, 2-fluoroethyl 2-[4-(2-methoxypyridin-3-yl)piperidin-1-yl]-6-azaspiro[3.4]octane-6-carboxylate], the EC50 in test [1] is greater than 20000 nM; in test [2], 15.8 nM; in test [3] (setting [5]) it was greater than 20000 nM; in test [4], greater than 20000 nM. The Emax is 65% in test [1] (relative to ACh), 80% in test [2], 11% in test [3] (relative to ACh) and 20% in test [4].

As for `CCOC(=O)N1CCC2(CC(N3CCC([C@@H]4CCCN4C(=O)N4CCOCC4)CC3)C2)C1` (single isomer, unassigned) [2-28 Isomer 2], the EC50 in test [1] was greater than 20000 nM; in test [2], 25.1 nM; in test [3] (setting [5]) it was greater than 20000 nM; in test [4], greater than 20000 nM. Also, the Emax in test [1] (relative to ACh) turned out to be 3%; in test [2], 63%; in test [3] (relative to ACh) it was 5%; in test [4] it was 7%.

Regarding `CCOC(=O)N1CCC2(CC(N3CCC([C@@H]4CCCN4c4ccncc4)CC3)C2)C1` (single isomer, unassigned) [2-80 Isomer 2], the EC50 in test [1] was greater than 20000 nM; in test [2] it was 20 nM; in test [3] (setting [5]) it was greater than 20000 nM; in test [4], 126 nM. In addition, the maximal response (Emax) is 16% in test [1] (relative to ACh), 107% in test [2], 18% in test [3] (relative to ACh) and 98% in test [4].

Take `CCOC(=O)N1CCC2(CC(N3CCC(N4CCC(F)(F)C4)CC3)C2)C1` (single isomer, unassigned) [2-100 Isomer 2, ethyl 2-[4-(3,3-difluoropyrrolidin-1-yl)piperidin-1-yl]-6-azaspiro[3.4]octane-6-carboxylate]: the EC50 in test [1] is greater than 20000 nM; in test [2], 200 nM; in test [3] (setting [5]), greater than 20000 nM; in test [4], greater than 20000 nM. Moreover, the Emax came to 4% in test [1] (relative to ACh), 55% in test [2], 5% in test [3] (relative to ACh) and 16% in test [4].

Turning to `CCOC(=O)N1CCC2(CC(N3CCC([C@@H]4CCCN4C(=O)NOC)CC3)C2)C1` (single isomer, unassigned) [2-33 Isomer 1], the EC50 was greater than 20000 nM in test [1], 7.94 nM in test [2], greater than 20000 nM in test [3] (setting [5]) and 398 nM in test [4]. The Emax amounted to 8% in test [1] (relative to ACh) and 3% in test [3] (relative to ACh). The “% Emax cf. ACh, M4” value in test [2] stood at 109%. Besides, the “% Emax cf. ACh, M1” value in test [4] turned out to be 86%.

Turning to `CCOC(=O)N1CCC2(CC(N3CCC(c4nc(C(F)(F)F)cn4C)CC3)C2)C1` (single isomer, unassigned) [1-15 Isomer 2, ethyl 2-{4-[1-methyl-4-(trifluoromethyl)-1H-imidazol-2-yl]piperidin-1-yl}-6-azaspiro[3.4]octane-6-carboxylate], the EC50 in test [1] is greater than 20000 nM; in test [3] (setting [5]), greater than 20000 nM; in test [4] it was 100 nM. The Emax in test [1] (relative to ACh) stood at 4%; in test [3] (relative to ACh), 6%; in test [4], 70%.

With `[2H]C([2H])([2H])C([2H])([2H])OC(=O)N1CCC2(CC(N3CCC(c4ccnn4C)CC3)C2)C1` (single isomer, unassigned) [1-73 Isomer 2, (^2H5)ethyl 2-[4-(1-methyl-1H-pyrazol-5-yl)piperidin-1-yl]-6-azaspiro[3.4]octane-6-carboxylate], the EC50 was 126 nM in test [2] and greater than 20000 nM in test [4]. The results for the Emax in test [2] and in test [4] were 72% and 11%, respectively.

Turning to `CCOC(=O)N1CCC2(CC(N3CCC(C4CCCN4C)CC3)C2)C1` (single isomer, unassigned) [2-22 Isomer 2, ethyl 2-[4-(1-methylpyrrolidin-2-yl)piperidin-1-yl]-6-azaspiro[3.4]octane-6-carboxylate], in test [2], the EC50 was 316 nM and the maximum response (Emax) was determined as 31%. Further, in test [4], the EC50 was greater than 20000 nM and the Emax was 7%.

For the molecule `CCOC(=O)N1CCC2(CC(N3CCC(N4C[C@@H](F)C[C@@H]4C(=O)OC)CC3)C2)C1` (single isomer, unassigned) [2-135 Isomer 2], in test [2], the EC50 was 12.6 nM and the Emax is 90%. In test [4], the EC50 was greater than 20000 nM and the Emax was found to be 15%.
